{"source": "patent US7410504B2", "about": "“Adducts based on cyclic compounds and the use thereof as tanning agents and curing agents” (BASF Aktiengesellschaft, priority 2003, dated 2008)", "origin": "cited, not measured here", "settings": "small amounts of glutaraldehyde, from 0.5 to 0.9% by weight based on the pelt weight"}
{"smiles": "O=CCCCC=O", "note": "[glutaraldehyde]", "values": [{"measurement": "Shrinkage temperature", "result": "≤ 70", "unit": "°C"}]}
